{"source": "patent EP3199156A1", "about": "“USE OF GLYCINE TRANSPORTER 1 ANTAGONISTS AS CENTRAL NERVOUS ANALGESICS” (Heinrich Heine Universität Düsseldorf, priority 2016, dated 2017)", "key": {"[1]": {"tested_on": "Wistar Ratte", "assay": "Mechanical allodynia (von Frey filament) after chronic constriction injury (CCI) of the left sciatic nerve, rat", "assay_type": "in vivo", "details": "rats, day 10-12 after CCI", "description": "(§1) Zum Beweis der Effektivität der Bitopertin-Applikation zur Behandlung neuropathischer Schmerzen wurde eine operative Ligatur des linken N. ischiadicus (Chronic Constriction Injury; CCI) der Wistar Ratte sowie C57BL/6-Maus induziert. Am Tag 10-12 nach CCI erhielten 2 Gruppen der Ratten randomisiert und verblindet eine einmalige orale Dosierungen von Bitopertin (0,3; 1 mg/kg), während die Kontrollgruppen Vehikel erhielten. Mechanische Allodynie wurde mittels eines halbautomatischen Frey Filaments (Ugo Basile) vor und 10-12 Tage nach CCI, sowie 1, 2, 4, 8 und 24 h nach Applikation von Bitopertin bzw. Vehikel überprüft. Zusätzlich wurde die Wirkung von Bitopertin 10 Tage nach CCI in Mäusen bei kontinuierlicher Langzeitapplikation mittels subkutan implantierter, osmotischer Mini-Infusionspumpen (2 mg/kg/Tag) über 27 Tage untersucht. Neuromotorische Wirkungen von Bitopertin in Mäusen wurden im Open-Field-Test 1 h nach Injektion bzw. bei kontinuierlicher Applikation nach 12 Tagen analysiert. Statistik: Alle Daten sind dargestellt als Mittelwerte ± Standardfehler; ANOVA und Bonferroni post hoc Test; Signifikanzniveau p<0,05.\nIn Figur 3 ist der Effekt des GlyT1-Inhibitors Bitopertin auf die mechanische Allodynie bei Nagern mit Neuropathie nach CCI dargestellt. Abbildung (A) zeigt den Effekt des GlyT1-Inhibitors Bitopertin auf die einmalige orale Applikation bei Ratten 0,3 mg/kg; n=9-11. […]"}, "[2]": {"tested_on": "C57BL/6-Maus", "assay": "Mechanical allodynia (von Frey filament, withdrawal threshold) after chronic constriction injury (CCI), mouse", "assay_type": "in vivo"}, "[3]": {"tested_on": "Mäusen", "details": "in vivo", "description": "as §1"}}, "note": "“Also recorded” adds a separate entry of the source."}
{"smiles": "C[C@H](Oc1ccc(S(C)(=O)=O)cc1C(=O)N1CCN(c2ncc(C(F)(F)F)cc2F)CC1)C(F)(F)F", "note": "[Bitopertin]", "values": [{"measurement": "durch CCI induzierte mechanische Allodynie", "setting": "[1]; single oral dose 0,3 mg/kg, effect two and four hours after administration, Figur 3 A", "result": "Reduktion der durch CCI induzierten mechanischen Allodynie; also recorded: signifikanten Verminderung von mechanischer Allodynie"}, {"measurement": "durch CCI induzierte mechanische Allodynie", "setting": "[1]; single oral dose 1 mg/kg, compared with 0,3 mg/kg, Figur 3 B", "result": "vergleichbar ausprägten Effekten; also recorded: signifikanten Verminderung von mechanischer Allodynie"}, {"measurement": "Schmerzempfindlichkeit der neuropathischen Extremität (mechanische Allodynie)", "setting": "[2]; mice after CCI, continuous subcutaneous administration 2 mg/kg/Tag by osmotic mini-pump over 27 days, effect from 7 days after start until end of therapy, Figur 3 C, 2 mg/kg", "result": "verminderten Schmerzempfindlichkeit der neuropathischen Extremität; also recorded: signifikanten Verminderung von mechanischer Allodynie"}, {"measurement": "Rückzugsschwellenwerte in Antwort auf eine mechanische Stimulation der neuropathischen Extremität", "setting": "[2]; mice, intraperitoneal 2 mg/kg versus Kochsalzlösung 0,9%, Figur 1", "result": "deutliche Anhebung der gemessenen Rückzugsschwellenwerte"}, {"measurement": "unerwünschte neuromotorische Wirkungen", "setting": "[3]", "result": "nicht zu unerwünschten neuromotorischen Wirkungen"}, {"measurement": "Aktivität (Open-field Test)", "setting": "[3]; 2 mg/kg", "result": "keine Veränderungen der Aktivität"}, {"measurement": "Wegstrecken und Aufenthaltsdauern (Open-Field-Test)", "setting": "[3]; sc, 2 mg/kg", "result": "keine Unterschiede in Wegstrecken und Aufenthaltsdauern"}]}
